According to PubChem BioAssay AID1918998 (Molecular Pharmacology Branch, DTP, NCI, 2023):

System: 521955-158-R2-J5-PDC complex spheroid growth
Test: Anticancer human tumor 521955-158-R2-J5-PDC patient-derived pancreatic carcinoma cell line growth inhibition [AhR]
Details: for IC50: curve of first compound; for viability, T/C: stronger effect = lower value
Method in brief: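 Spheroids combined tumor cells with HUVEC endothelial cells and human MSCs as stroma. AhR antagonists were paired with standard or investigational drugs, each dosed in half-log steps down from near clinical Cmax, or from 10 microM where Cmax was unknown.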
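For viability, T/C in this document: spheroids mix tumor cells with HUVEC endothelium and human MSC stroma; luminescence taken as viability surrogate after a week of drug exposure.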

Work on CC(C)c1c(-c2ccccc2)nc2c(C#N)c[nH]n2c1=O + Cc1cncc(-c2nc(NCCc3c[nH]c4ccccc34)c3ncn(C(C)C)c3n2)c1 yielded an IC50 (second compound 0.1 µM) greater than 10 µM, an IC50 (second compound 0.316 µM) greater than 10 µM and an IC50 (second compound 1 µM) greater than 10 µM. The IC50 (second compound 3.16 µM) was greater than 10 µM, the IC50 (second compound 10 µM) was greater than 10 µM and the viability, T/C (second compound 0.1 µM, first compound 0.0316 µM) was 96.9%. The viability, T/C (second compound 0.1 µM, first compound 0.1 µM) was 112%, the viability, T/C (second compound 0.1 µM, first compound 0.316 µM) was 114% and the viability, T/C (second compound 0.1 µM, first compound 1 µM) was 101%. It also gave a viability, T/C (second compound 0.1 µM, first compound 3.16 µM) of 98.7%, a viability, T/C (second compound 0.1 µM, first compound 10 µM) of 94.6% and a viability, T/C (second compound 0.316 µM, first compound 0.0316 µM) of 101%. It also gave a viability, T/C (second compound 0.316 µM, first compound 0.1 µM) of 137%, a viability, T/C (second compound 0.316 µM, first compound 0.316 µM) of 98.9% and a viability, T/C (second compound 0.316 µM, first compound 1 µM) of 106%. The viability, T/C (second compound 0.316 µM, first compound 3.16 µM) was 95.7%, the viability, T/C (second compound 0.316 µM, first compound 10 µM) was 94.6% and the viability, T/C (second compound 1 µM, first compound 0.0316 µM) was 133%. For the same molecule, the viability, T/C (second compound 1 µM, first compound 0.1 µM) was 142%, the viability, T/C (second compound 1 µM, first compound 0.316 µM) was 127% and the viability, T/C (second compound 1 µM, first compound 1 µM) was 112%. For the same molecule, the viability, T/C (second compound 1 µM, first compound 3.16 µM) was 106%, the viability, T/C (second compound 1 µM, first compound 10 µM) was 105% and the viability, T/C (second compound 3.16 µM, first compound 0.0316 µM) was 169%. It also gave a viability, T/C (second compound 3.16 µM, first compound 0.1 µM) of 151%, a viability, T/C (second compound 3.16 µM, first compound 0.316 µM) of 146% and a viability, T/C (second compound 3.16 µM, first compound 1 µM) of 134%. The viability, T/C (second compound 3.16 µM, first compound 3.16 µM) was 131%, the viability, T/C (second compound 3.16 µM, first compound 10 µM) was 136% and the viability, T/C (second compound 10 µM, first compound 0.0316 µM) was 134%. For the same molecule, the viability, T/C (second compound 10 µM, first compound 0.1 µM) was 147%, the viability, T/C (second compound 10 µM, first compound 0.316 µM) was 153% and the viability, T/C (second compound 10 µM, first compound 1 µM) was 143%. The viability, T/C (second compound 10 µM, first compound 3.16 µM) was 118% and the viability, T/C (second compound 10 µM, first compound 10 µM) was 124%.
